From ChEMBL document CHEMBL1133314, “Syntheses and biological evaluation of novel pseudomycin side-chain analogues. Part 2” (2000)
In brackets after ≈: the same amount, converted by molar mass.

How the values were obtained:
Candida albicans [1] = experiment: Lowest concentration required to inhibit 90-100% of the visible growth of Candida albicans; Range is […]; assay type: functional
Aspergillus fumigatus = experiment: Lowest concentration required to inhibit 90-100% of the visible growth of Aspergillus fumigatus; assay type: functional
Candida albicans [2] = experiment: Lowest concentration required to inhibit 90-100% of the visible growth of Candida albicans; assay type: functional
Cryptococcus neoformans [3] = experiment: Tested in vitro for lowest concentration required to inhibit 90-100% of the visible growth of Cryptococcus neoformans
Candida albicans [4] = experiment: Lowest concentration required to inhibit 90-100% of the visible growth of Candida albicans; Range is 0.625-1.25; assay type: functional
Cryptococcus neoformans [5] = experiment: Tested in vitro for lowest concentration required to inhibit 90-100% of the visible growth of Cryptococcus neoformans; Range is 0.02-0.078
Candida albicans [6] = experiment: Lowest concentration required to inhibit 90-100% of the visible growth of Candida albicans; Range is 0.312-1.25; assay type: functional

Structure (SMILES)	MIC (Candida albicans [1])	MIC (Aspergillus fumigatus)	MIC (Candida albicans [2])	MIC (Cryptococcus neoformans [3])	MIC (Candida albicans [4])	MIC (Cryptococcus neoformans [5])	MIC (Candida albicans [6])
C/C=C1\NC(=O)[C@H]([C@H](C)O)NC(=O)[C@H](CCN)NC(=O)[C@H](CCCCN)NC(=O)[C@H](CC(=O)O)NC(=O)[C@@H](CCN)NC(=O)[C@@H](NC(=O)C[C@@H](O)CCCCCCCCCCC)COC(=O)[C@H]([C@H](O)CCl)NC(=O)[C@H]([C@H](O)C(=O)O)NC1=O	5 µg/mL (≈ 4.14 µM)	> 20 µg/mL					
C/C=C1\NC(=O)[C@H]([C@H](C)O)NC(=O)[C@H](CCN)NC(=O)[C@H](CCCCN)NC(=O)[C@H](CC(=O)O)NC(=O)[C@@H](CCN)NC(=O)[C@@H](NC(=O)C[C@H](O)CCCCCCCCCCCCCCC)COC(=O)[C@H]([C@H](O)CCl)NC(=O)[C@H]([C@H](O)C(=O)O)NC1=O		2.5 µg/mL (≈ 1.98 µM)	0.625 µg/mL (≈ 0.495 µM)	0.01 µg/mL (≈ 0.00791 µM)			
C/C=C1\NC(=O)[C@H]([C@H](C)O)NC(=O)[C@H](CCN)NC(=O)[C@H](CCCCN)NC(=O)[C@H](CC(=O)O)NC(=O)[C@@H](CCN)NC(=O)[C@@H](NC(=O)C[C@@H](O)CCCCCCCCCCCCCCCCC)COC(=O)[C@H]([C@H](O)CCl)NC(=O)[C@H]([C@H](O)C(=O)O)NC1=O		> 20 µg/mL	5 µg/mL (≈ 3.87 µM)	5 µg/mL (≈ 3.87 µM)			
C/C=C1\NC(=O)[C@H]([C@H](C)O)NC(=O)[C@H](CCN)NC(=O)[C@H](CCCCN)NC(=O)[C@H](CC(=O)O)NC(=O)[C@@H](CCN)NC(=O)[C@@H](NC(=O)C[C@H](O)CCCCCCCCCCCCCCCCC)COC(=O)[C@H]([C@H](O)CCl)NC(=O)[C@H]([C@H](O)C(=O)O)NC1=O		5 µg/mL (≈ 3.87 µM)	5 µg/mL (≈ 3.87 µM)	1.25 µg/mL (≈ 0.968 µM)			
C/C=C1\NC(=O)[C@H]([C@H](C)O)NC(=O)[C@H](CCN)NC(=O)[C@H](CCCCN)NC(=O)[C@H](CC(=O)O)NC(=O)[C@@H](CCN)NC(=O)[C@@H](NC(=O)C[C@@H](O)CCCCCCCCCCCCCCC)COC(=O)[C@H]([C@H](O)CCl)NC(=O)[C@H]([C@H](O)C(=O)O)NC1=O		10 µg/mL (≈ 7.91 µM)	2.5 µg/mL (≈ 1.98 µM)	0.312 µg/mL (≈ 0.247 µM)			
C/C=C1\NC(=O)[C@H]([C@@H](C)O)NC(=O)[C@H](CCN)NC(=O)[C@H](CCCCN)NC(=O)[C@H](CC(=O)O)NC(=O)[C@@H](CCN)NC(=O)[C@@H](NC(=O)CC(O)CCCCCCCCCCCCCCCCC)COC(=O)[C@H]([C@H](O)CCl)NC(=O)[C@H]([C@H](O)C(=O)O)NC1=O (mixture of isomers)		2.5 µg/mL	10 µg/mL	0.625 µg/mL			
C/C=C1\NC(=O)[C@H]([C@@H](C)O)NC(=O)[C@H](CCN)NC(=O)[C@H](CCCCN)NC(=O)[C@H](CC(=O)O)NC(=O)[C@@H](CCN)NC(=O)[C@@H](NC(=O)CC(O)CCCCCCCCCCC)COC(=O)[C@H]([C@H](O)CCl)NC(=O)[C@H]([C@H](O)C(=O)O)NC1=O (mixture of isomers)		> 20 µg/mL			1.25 µg/mL		
C/C=C1\NC(=O)[C@H]([C@@H](C)O)NC(=O)[C@H](CCN)NC(=O)[C@H](CCCCN)NC(=O)[C@H](CC(=O)O)NC(=O)[C@@H](CCN)NC(=O)[C@@H](NC(=O)CC(O)CCCCCCCCCCCCCCC)COC(=O)[C@H]([C@H](O)CCl)NC(=O)[C@H]([C@H](O)C(=O)O)NC1=O (mixture of isomers)		5 µg/mL	1.25 µg/mL			0.02 µg/mL	
C/C=C1\NC(=O)[C@H]([C@H](C)O)NC(=O)[C@H](CCN)NC(=O)[C@H](CCCCN)NC(=O)[C@H](CC(=O)O)NC(=O)[C@@H](CCN)NC(=O)[C@@H](NC(=O)C[C@H](O)CCCCCCCCCCC)COC(=O)[C@H]([C@H](O)CCl)NC(=O)[C@H]([C@H](O)C(=O)O)NC1=O [PSEUDOMYCIN B]		> 20 µg/mL					1.25 µg/mL (≈ 1.03 µM)
